# Reference: patent publication US9193719B2, “1,2,4-triazol-5-ones and analogs exhibiting anti-cancer and anti-proliferative activities” (Deciphera Pharmaceuticals, LLC, priority 2013, dated 2015)
# Tests used:
# [1] = biological target: T1, unphosphorylated c-FMS kinase (uFMS, Seq. ID no. 1) (Homo sapiens, UniProt P07333); experiment: uFMS kinase enzymatic assay (pyruvate kinase/lactate dehydrogenase coupled); assay type: biochemical; details: ATP 500 μM, rate 3 to 4 h
# T1 construct: purchased Millipore
# T1 sequence (P07333 538-972): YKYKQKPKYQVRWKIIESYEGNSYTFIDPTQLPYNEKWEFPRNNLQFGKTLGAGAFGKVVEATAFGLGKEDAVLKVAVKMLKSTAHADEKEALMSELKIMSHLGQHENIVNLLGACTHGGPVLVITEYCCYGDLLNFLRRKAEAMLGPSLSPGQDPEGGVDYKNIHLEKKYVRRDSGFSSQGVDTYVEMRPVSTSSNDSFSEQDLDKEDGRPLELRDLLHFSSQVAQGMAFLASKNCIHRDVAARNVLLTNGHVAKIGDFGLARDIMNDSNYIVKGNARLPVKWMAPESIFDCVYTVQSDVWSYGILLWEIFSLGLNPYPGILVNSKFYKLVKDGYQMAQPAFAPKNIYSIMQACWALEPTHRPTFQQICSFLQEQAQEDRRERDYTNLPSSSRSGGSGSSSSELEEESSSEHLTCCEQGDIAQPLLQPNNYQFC
# Method: uFMS Kinase (Seq. ID No. 1) Assay
# Activity of unphosphorylated c-FMS kinase (uFMS, Seq. ID no. 1) was determined by following the production of ADP from the FMS kinase reaction with ATP and poly E4Y as substrates through coupling with the pyruvate kinase/lactate dehydrogenase system (e.g., Schindler et al. Science (2000) 289: 1938-1942). In this assay, the oxidation of NADH (thus the decrease at A340 nm) was continuously monitored spectrophometrically. The reaction mixture (100 μL) contained FMS (purchased from Millipore) (10 nM), polyE4Y (1 mg/mL), MgCl2 (10 mM), pyruvate kinase (4 units), lactate dehydrogenase (0.7 units), phosphoenol pyruvate (1 mM), NADH (0.28 mM) and ATP (500 μM) in 90 mM Tris buffer containing 0.2% octyl-glucoside and 1% DMSO, pH 7.5. The inhibition reaction was started by mixing serial diluted test compound with the above reaction mixture. The absorption at 340 nm was monitored continuously for 4 hours at 30° C. on Synergy 2 plate reader. The reaction rate was calculated using the 3 to 4 h time frame. Percent inhibition was obtained by comparison of reaction rate with that of a control (i.e. in the absence of test compound). IC50 values were calculated from a series of percent inhibition values determined at a range of inhibitor concentrations using software routines as implemented in the GraphPad Prism software package.
# [2] = biological target: T2, unphosphorylated PDGFRβ kinase (uPDGFRβ, Seq. ID No. 3) (Homo sapiens, UniProt P09619); experiment: uPDGFRβ kinase enzymatic assay (pyruvate kinase/lactate dehydrogenase coupled); assay type: biochemical; details: ATP 500 μM, rate 1.5 to 2.5 h
# T2 construct: purchased DeCode
# T2 sequence (P09619 557-1106): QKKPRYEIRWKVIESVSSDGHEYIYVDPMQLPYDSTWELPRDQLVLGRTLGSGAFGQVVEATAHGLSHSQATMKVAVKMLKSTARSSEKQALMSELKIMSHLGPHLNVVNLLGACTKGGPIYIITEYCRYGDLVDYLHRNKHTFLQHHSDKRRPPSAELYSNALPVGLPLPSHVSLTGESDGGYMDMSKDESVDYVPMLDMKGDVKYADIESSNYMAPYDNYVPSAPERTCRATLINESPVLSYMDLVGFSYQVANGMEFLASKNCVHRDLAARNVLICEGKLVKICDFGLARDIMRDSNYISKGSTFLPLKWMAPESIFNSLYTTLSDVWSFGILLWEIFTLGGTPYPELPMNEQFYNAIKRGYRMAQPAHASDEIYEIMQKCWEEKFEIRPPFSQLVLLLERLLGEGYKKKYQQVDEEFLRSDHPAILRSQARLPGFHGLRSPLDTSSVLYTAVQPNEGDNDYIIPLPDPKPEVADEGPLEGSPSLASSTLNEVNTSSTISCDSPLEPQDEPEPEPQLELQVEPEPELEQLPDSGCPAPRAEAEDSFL
# Method: Unphosphorylated PDGFRβ (uPDGFRβ) Kinase (Seq. ID No. 3) Assay
# Activity of unphosphorylated PDGFRβ kinase (uPDGFRβ, Seq. ID No. 3) was determined by following the production of ADP from the kinase reaction with ATP and poly E4Y as substrates through coupling with the pyruvate kinase/lactate dehydrogenase system (e.g., Schindler et al. Science (2000) 289: 1938-1942). In this assay, the oxidation of NADH (thus the decrease at A340 nm) was continuously monitored spectrophometrically. The reaction mixture (100 μL) contained PDGFRβ (DeCode, 15.7 nM), polyE4Y (2.5 mg/mL), MgCl2 (10 mM), pyruvate kinase (4 units), lactate dehydrogenase (0.7 units), phosphoenol pyruvate (1 mM) and NADH (0.28 mM) and ATP (500 μM) in a 90 mM Tris buffer containing 0.2% octyl-glucoside and 1% DMSO, at pH 7.5. The inhibition reaction was started by mixing serial diluted test compound with the above reaction mixture. The absorption at 340 nm was monitored continuously for 4 h at 30° C. on a Polarstar Optima or Synergy 2 plate reader. The reaction rate was calculated using the 1.5 to 2.5 h time frame. Percent inhibition was obtained by comparison of reaction rate with that of a control (i.e. with no test compound). IC50 values were calculated from a series of percent inhibition values determined at a range of inhibitor concentrations using software routines as implemented in the GraphPad Prism software package.
# [3] = biological target: T3, unphosphorylated c-KIT kinase (uKIT, Seq. ID no. 2) (Homo sapiens, UniProt P10721); experiment: uKit kinase enzymatic assay (pyruvate kinase/lactate dehydrogenase coupled); assay type: biochemical; details: ATP 2000 μM, rate 3 to 4 h
# T3 construct: uKit with N-terminal GST fusion used for screening
# T3 sequence (P10721 with tags, fused parts or gaps): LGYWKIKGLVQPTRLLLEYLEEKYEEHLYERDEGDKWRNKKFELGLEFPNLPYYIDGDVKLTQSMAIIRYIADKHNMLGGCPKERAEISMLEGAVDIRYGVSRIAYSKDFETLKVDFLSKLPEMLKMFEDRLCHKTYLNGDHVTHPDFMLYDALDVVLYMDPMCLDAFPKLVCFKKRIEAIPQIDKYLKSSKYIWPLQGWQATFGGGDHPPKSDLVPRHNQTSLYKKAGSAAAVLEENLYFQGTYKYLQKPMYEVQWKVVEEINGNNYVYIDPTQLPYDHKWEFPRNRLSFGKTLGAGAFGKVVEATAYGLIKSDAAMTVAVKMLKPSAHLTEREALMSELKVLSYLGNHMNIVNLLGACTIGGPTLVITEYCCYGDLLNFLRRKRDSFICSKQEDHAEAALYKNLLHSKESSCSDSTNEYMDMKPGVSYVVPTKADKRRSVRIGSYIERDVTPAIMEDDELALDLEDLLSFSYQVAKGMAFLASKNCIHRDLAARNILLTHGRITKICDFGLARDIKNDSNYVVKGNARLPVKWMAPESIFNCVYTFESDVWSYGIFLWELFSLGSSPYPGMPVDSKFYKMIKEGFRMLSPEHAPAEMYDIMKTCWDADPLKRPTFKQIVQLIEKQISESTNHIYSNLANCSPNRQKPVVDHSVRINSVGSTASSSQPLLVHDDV
# Method: uKit Kinase (Seq. ID No. 2) Assay
# Activity of unphosphorylated c-KIT kinase (uKIT, Seq. ID no. 2) was determined by following the production of ADP from the KIT kinase reaction with ATP and poly E4Y as substrates through coupling with the pyruvate kinase/lactate dehydrogenase system (e.g., Schindler et al. Science (2000) 289: 1938-1942). In this assay, the oxidation of NADH (thus the decrease at A340 nm) was continuously monitored spectrophometrically. The reaction mixture (100 μl) contained unphosphorylated KIT (12 nM), polyE4Y (1 mg/mL), MgCl2 (10 mM), pyruvate kinase (4 units), lactate dehydrogenase (0.7 units), phosphoenol pyruvate (1 mM), and NADH (0.28 mM) and ATP (2000 μM) in 90 mM Tris buffer containing 0.2% octyl-glucoside and 1% DMSO, pH 7.5. The inhibition reaction was started by mixing serial diluted test compound with the above reaction mixture. The absorption at 340 nm was monitored continuously for 4 hours at 30° C. on Synergy 2 plate reader (BioTech). Reaction rates around 3 to 4 h time frame were used to calculate % inhibitions, from which IC50 values were generated.
# M-NFS-60 cells = experiment: M-NFS-60 cell proliferation assay (resazurin); assay type: cell-based; details: 67 h incubation
# Method: M-NFS-60 cells (catalog #CRL-1838) were obtained from the American Type Culture Collection (ATCC, Manassas, Va.). Briefly, cells were grown in suspension in RPMI 1640 medium supplemented with 10% characterized fetal bovine serum (Invitrogen, Carlsbad, Calif.), 0.05 mM 2-mercaptoethanol, and 20 ng/mL mouse recombinant macrophage colony stimulating factor (M-CSF) at 37° C., 5% CO2, and 95% humidity. Cells were allowed to expand until reaching saturation at which point they were subcultured or harvested for assay use.
# M-NFS-60 Cell Proliferation Assay
# A serial dilution of test compound was dispensed into a 384-well black clear bottom plate (Corning, Corning, N.Y.). Two thousand five hundred cells were added per well in 50 μL complete growth medium. Plates were incubated for 67 h at 37° C., 5% CO2, and 95% humidity. At the end of the incubation period 10 μL of a 440 μM solution of resazurin (Sigma, St. Louis, Mo.) in PBS was added to each well and incubated for an additional 5 h at 37° C., 5% CO2, and 95% humidity. Plates were read on a Synergy2 reader (Biotek, Winooski, Vt.) using an excitation of 540 nm and an emission of 600 nm. IC50 values were calculated from a series of percent inhibition values determined at a range of inhibitor concentrations using software routines as implemented in the GraphPad Prism software package.
# osteoclast precursors = experiment: Osteoclast tartrate-resistant acid phosphatase assay; assay type: cell-based; details: RANKL and M-CSF, 7-14 days, tartrate-resistant acid phosphatase activity
# Method: Osteoclast Tartrate-Resistant Acid Phosphatase Assay
# A serial dilution of test compound was dispensed into a 384-well black clear bottom plate (Nalge Nunc International, Rochester, N.Y.). Compound was diluted by the addition of DMEM media supplemented with 10% characterized fetal bovine serum (Invitrogen, Carlsbad, Calif.). Diluted compound was transferred to a 384-well black clear bottom plate. Two-thousand five hundred osteoclast precursors (Lonza, Walkersville, Md.) were added per well in growth media containing Receptor Activator of Nuclear Factor Kappa-beta ligand (RANKL) and M-CSF (R&D Systems, Minneapolis, Minn.). Plates were incubated for 7-14 days at 37 degrees Celsius, 5% CO2, and 95% humidity to allow differentiation of osteoclast precursors. At the end of the incubation period, 10 μL of supernatant from each well was transferred to a clear 384-well plate. Tartrate-resistant acid phosphatase activity in the supernatant samples was determined using an acid phosphatase assay kit (Sigma, St. Louis, Mo.). Absorbance was measured at 550 nm using a plate reader. Data was analyzed using Prism software (Graphpad, San Diego, Calif.) to calculate IC50 values.
SMILES,IC50 [1] [nM],IC50 [2] [nM],IC50 [3] [nM],IC50 (M-NFS-60 cells) [nM],IC50 (osteoclast precursors) [nM]
"CCc1nc(-n2nc(C(C)(C)C)[nH]c2=O)ccc1Oc1ccnc(-c2cnn(C)c2)c1 [Example 8, 3-(tert-butyl)-1-(6-ethyl-5-((2-(1-methyl-1H-pyrazol-4-yl)pyridin-4-yl)oxy)pyridin-2-yl)-1H-1,2,4-triazol-5(4H)-one]",100 to 1000,> 1000,> 1000,100 to 1000,100 to 1000
"CC(=O)Nc1cc(Oc2ccc(-n3nc(C(C)(C)C)[nH]c3=O)nc2C)ccn1 [Example 11, N-(4-((6-(3-(tert-butyl)-5-oxo-4,5-dihydro-1H-1,2,4-triazol-1-yl)-2-methylpyridin-3-yl)oxy)pyridin-2-yl)acetamide]",10 to 100,> 1000,> 1000,100 to 1000,100 to 1000
"Cc1ncc(-c2cc(Oc3ccc(-n4nc(C(C)(C)C)[nH]c4=O)nc3C)ccn2)s1 [Example 12, 3-(tert-butyl)-1-(6-methyl-5-((2-(2-methylthiazol-5-yl)pyridin-4-yl)oxy)pyridin-2-yl)-1H-1,2,4-triazol-5(4H)-one]",10 to 100,> 1000,100 to 1000,10 to 100,10 to 100
"COCCc1nn(-c2ccc(Oc3ccnc(-c4cnn(C)c4)c3)c(C)n2)c(=O)[nH]1 [Example 15, 3-(2-methoxyethyl)-1-(6-methyl-5-((2-(1-methyl-1H-pyrazol-4-yl)pyridin-4-yl)oxy)pyridin-2-yl)-1H-1,2,4-triazol-5(4H)-one]",10 to 100,> 1000,> 1000,> 1000,100 to 1000
"COCc1nn(-c2ccc(Oc3ccnc(-c4cnn(C)c4)c3)c(C)n2)c(=O)[nH]1 [Example 17, 3-(methoxymethyl)-1-(6-methyl-5-((2-(1-methyl-1H-pyrazol-4-yl)pyridin-4-yl)oxy)pyridin-2-yl)-1H-1,2,4-triazol-5(4H)-one]",100 to 1000,–,> 1000,> 1000,> 1000
"Cc1nc(-n2nc(C(C)(C)C)[nH]c2=O)ccc1Oc1ccnc(-c2cnn(CCO)c2)c1 [Example 18, 3-(tert-butyl)-1-(5-((2-(1-(2-hydroxyethyl)-1H-pyrazol-4-yl)pyridin-4-yl)oxy)-6-methylpyridin-2-yl)-1H-1,2,4-triazol-5(4H)-one]",10 to 100,> 1000,100 to 1000,100 to 1000,100 to 1000
"Cc1cn(-c2cc(Oc3ccc(-n4nc(C(C)(C)C)[nH]c4=O)nc3C)ccn2)cn1 [Example 19, 3-(tert-butyl)-1-(6-methyl-5-((2-(4-methyl-1H-imidazol-1-yl)pyridin-4-yl)oxy)pyridin-2-yl)-1H-1,2,4-triazol-5(4H)-one]",10 to 100,> 1000,> 1000,100 to 1000,100 to 1000
"Cc1nc(-n2nc(C(C)(C)C)[nH]c2=O)ccc1Oc1ccnc(NC(=O)C2CCN(C)CC2)c1 [Example 21, N-(4-((6(3-(tert-butyl)-5-oxo-4,5-dihydro-1H-1,2,4-triazol-1-yl)-2-methylpyridin-3-yl)oxy)pyridin-2-yl)-1-methylpiperidine-4-carboxamide]",100 to 1000,> 1000,> 1000,> 1000,100 to 1000
"Cc1nc(-n2nc(C(C)(C)C)[nH]c2=O)ccc1Oc1ccnc(-c2cn(C)cn2)c1 [Example 23, 3-(tert-butyl)-1-(6-methyl-5-((2-(1-methyl-1H-imidazol-4-yl)pyridin-4-yl)oxy)pyridin-2-yl)-1H-1,2,4-triazol-5(4H)-one]",10 to 100,> 1000,> 1000,100 to 1000,10 to 100
"Cc1nc(-n2nc(C(C)(C)C)[nH]c2=O)ccc1Oc1ccnc(-c2cn[nH]c2)c1 [Example 24, 1-(5-((2-(1H-pyrazol-4-yl)pyridin-4-yl)oxy)-6-methylpyridin-2-yl)-3-(tert-butyl)-1H-1,2,4-triazol-5(4H)-one]",100 to 1000,> 1000,> 1000,100 to 1000,100 to 1000
"CNC(=O)c1cc(Oc2ccc(-n3nc(C(C)(C)C)[nH]c3=O)nc2)ccn1 [Example 26, 4-((6-(3-(tert-butyl)-5-oxo-4,5-dihydro-1H-1,2,4-triazol-1-yl)pyridin-3-yl)oxy)-N-methylpicolinamide]",10 to 100,> 1000,> 1000,> 1000,100 to 1000
